The numbers were not newly measured in patent publication US20230310464A1, “USE OF C[…] THE TREATMENT OF SEIZURES ASSOCIATED WITH RARE […] SYNDROMES RELATED TO BRAIN INJURY” (GW Research Limited, priority 2020, published 2023), which cites them from elsewhere.

Data set [1] concerns seizures in patients with Lennox Gastaut syndrome. As to conditions: 100% CBD, half also with HIE, Morales et al.; cited from earlier work.
The subject of data set [2] is new-born piglets with HIE. As to conditions: Alvarez et al. (2008); cited from earlier work.
The subject of data set [3] is HI injury in an animal model of NHIE. Conditions: CBD combined with therapeutic hypothermia, GB 2504263; cited from earlier work.
In data set [4] the test system is patients with Dravet and Lennox-Gastaut syndrome. As to conditions: purified pharmaceutical formulation of CBD, three trials; cited from earlier work.

As to `C=C(C)[C@@H]1CCC(C)=C[C@H]1c1c(O)cc(CCCCC)cc1O` [CBD, cannabidiol], in data set [1], the “effect on seizures in LGS patients (in words)” value is reported as “a reduction in seizures was obtained”. Moreover, in data set [2], the “effect on seizures in piglets (in words)” value is “A reduction in seizures was reported” and the “proportion of CBD-treated piglets that still maintained significant seizures” value is given as “half”. Moreover, the “neuroprotection following HI injury (in words)” value in data set [3] is “synergistic in neuroprotection”. Moreover, the “efficacy in randomized control trials (in words)” value in data set [4] was “showed efficacy”.
